This data set is described as follows: Dispersion in tap water, then in simulated gastric and enteric liquid (GSF, FaSSIF V2). Format: physicochemical. The note with it: 500 mg in 100 ml tap water, then GSF and FaSSIF V2, 37°C, 250 rpm, magnetic stirring (Figure 10). The text has this: • Figure 1. Representative image of the in vitro model of intestinal epithelium, with the Caco-2 cell monolayer grown on a Transwell® insert. • Figure 2. (A) Electron micrograph of enterocytes forming the Caco-2 monolayer with the microvilli and occluding junctions highlighted; (B) Confocal microscopy images highlighting the occluding junctions (red) and cell nuclei (blue). • Figure 3. Dimensional distribution of PEAMag®, normast® MPS microgranules and PEA of the invention measured by DLS at the end of the digestive process in vitro. • Figure 4. Bioaccessibility (A) and excreted fraction (B) of the PEA present in the three formulations, following exposure to the digestive process (* p<0.05). • Figure 5. Cell viability of intestinal epithelia exposed to digestive fluids in the absence of the formulations (0%) and increasing concentrations of PEAMag® (A), normast® MPS microgranules (B) and PEA of the invention (C) for 3 h (*cell viability < 70%). • Figure 6. TEER of intestinal epithelia exposed to digestive fluids in the absence of the formulations (0%) and increasing concentrations of PEAMag® (A), normast® MPS microgranules (B) and PEA of the invention (C) for 3 h. • Figure 7. […]

Take `CCCCCCCCCCCCCCCC(=O)NCCO` [PEA, Palmitoylethanolamide]: the dispersion behaviour entry is on record as “emergence of the PEA on the surface of the liquid”.

(Values after EP4169506B1, “PALMITOYLETHANOLAMIDE-BASED COMPOSITION IN THE FORM OF POWDERS WITH HIGH ENTERIC BIOACCESSIBILITY” (Geofarma S.r.l., priority 2021, dated 2023).)
